Where a SMILES comes first, the peptide text is derived from it. [ ]: non-standard residue; d: D form. The star is where a group is joined. Nle = CCCC[C@H](N)C(=O)O; Cbz = O=C(OCc1ccccc1)*; CH2F = FC*

In test [1] the test system is proteasome. The experiment in a line: In vitro degradation of 2XUb-Bla in chase lysate with inhibitors. As to conditions: 20 minutes at 37° C.
Test [2] deals with T1, proteasome (Homo sapiens, UniProt P28074).
T1 sequence (P28074 60-263): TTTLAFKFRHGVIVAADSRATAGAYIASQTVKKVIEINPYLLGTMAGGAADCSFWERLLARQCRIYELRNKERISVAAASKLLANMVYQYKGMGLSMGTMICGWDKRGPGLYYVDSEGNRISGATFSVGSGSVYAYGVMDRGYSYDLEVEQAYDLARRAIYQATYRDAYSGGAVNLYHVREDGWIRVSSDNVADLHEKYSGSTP
T1 sequence (P28072 35-239 partner): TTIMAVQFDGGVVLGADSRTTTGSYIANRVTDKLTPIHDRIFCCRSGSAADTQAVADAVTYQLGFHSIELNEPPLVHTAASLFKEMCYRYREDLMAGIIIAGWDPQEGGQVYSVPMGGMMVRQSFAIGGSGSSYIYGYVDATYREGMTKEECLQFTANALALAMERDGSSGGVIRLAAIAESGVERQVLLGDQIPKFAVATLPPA
T1 sequence (Q99436 44-277 partner): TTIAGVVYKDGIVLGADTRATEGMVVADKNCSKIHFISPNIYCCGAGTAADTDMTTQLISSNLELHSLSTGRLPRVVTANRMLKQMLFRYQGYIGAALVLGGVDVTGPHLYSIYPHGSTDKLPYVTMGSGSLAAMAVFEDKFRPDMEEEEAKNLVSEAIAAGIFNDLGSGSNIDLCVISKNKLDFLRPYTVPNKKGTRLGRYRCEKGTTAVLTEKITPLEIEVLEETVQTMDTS
To be noted: read-out: IC50 inhibition of decay of β-lactamase activity; Jurkat cells expressing 2XUb-Bla, 30 minutes preincubation, cycloheximide 1 hour.
Method: The cells were loaded with CCF2-AM to measure β-lactamase activity as described above.
After 1 hour at 37° C., the cells were cooled to room temperature and then loaded with 1 μM CCF2-AM and β-lactamase activity quantified using a CytoFluor plate reader. The background-subtracted emission values at 460 nm and 530 nm were expressed as a 460/530 ratio and dose-response curves were plotted.

The conditions of test [3]: overnight treatment of Jurkat cells; cited from earlier work.
The subject of test [4] is proteasome. The experiment in a line: TNT in vitro synthesis of multiUb-Bla fusions with or without proteasome inhibitor. As to conditions: 50 μM; β-lactamase fusions containing 2, 3 or 4 copies of ubiquitinG76V.
From the text: S-Labeled multimerized destabilization domain-β-lactamase fusion protein molecules were produced using a coupled in vitro transcription/translation system based on a rabbit reticulocyte lysate (TNT T7 Quick; Promega).
In test [5] the test system is group II caspases. The experiment in a line: Caspase activity assay in Jurkat clones expressing 2XUb-DEVD-Bla or 2XUb-DEVA-Bla (CCF2-AM, 460/530 ratio). The test is classed as cell-based, human.
Test [6] has as its system HRV16 2A protease. Kind of test: HRV 2A protease cell-based assay, Jurkat clone expressing 3XUb-HRV16-Bla. Also on record: species or system human rhinovirus 16. As to conditions: compound 1 μM, 4 hours, cycloheximide 30 minutes. The protocol: (§1) To assay HRV 2A protease activity, the selected Jurkat stable cell clones were treated for 16 hours with […] clavulanate to inactivate pre-existing cleaved and uncleaved HRV 2A-Bla fusion protein. Cells were then washed twice with PBS, resuspended at 100,000 cells/well in 100 μl RPMI+10% FBS in 96-well plates. The cells were incubated at 37° C. for 4 hours in the presence or absence of an inhibitor of the 2A protease. Cells were treated with 100 μg/ml cycloheximide for 30 minutes at 37° C., loaded with CCF2-AM for 2 hours at room temperature and read on the CytoFluor plate reader as described in Example 8. Inhibitor compounds, radicicol and geldanamycin, were used for the validation of the HRV protease cell-based assay. […] Compounds were tested at 1 μM for their ability to inhibit the HRV 2A protease cell-based assay using clones expressing HRV16 and HRV14 2A protease reporters.

Test [7] concerns HRV14 2A protease. Kind of test: HRV 2A protease cell-based assay, Jurkat clone expressing 3XUb-HRV14-Bla. As to conditions: compound 1 μM, 4 hours, cycloheximide 30 minutes. Also on record: species or system human rhinovirus 14. How it is done: as §1
In test [8] the target is T2, β-lactamase (Escherichia coli, UniProt P62593).
T2 construct: wild-type (cleavable) ubiquitin (N, cleaved yes); expressed in transfected cells; host or cells: Jurkat
T2 sequence (P62593 24-286 limits assumed): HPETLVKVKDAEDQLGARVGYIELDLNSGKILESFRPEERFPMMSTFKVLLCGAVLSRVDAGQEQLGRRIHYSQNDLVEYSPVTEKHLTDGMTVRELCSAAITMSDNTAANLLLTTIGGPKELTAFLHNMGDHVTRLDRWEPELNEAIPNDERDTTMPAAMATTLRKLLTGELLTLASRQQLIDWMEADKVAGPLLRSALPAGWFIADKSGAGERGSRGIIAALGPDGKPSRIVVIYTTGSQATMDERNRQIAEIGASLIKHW
Kind of test: Control: β-lactamase activity in Jurkat cells expressing wild-type β-lactamase. The test is classed as cell-based. To be noted: data not shown.

Take `CCCC[C@@H](C=O)NC(=O)[C@H](CC(C)C)NC(=O)[C@H](CC(C)C)NC(C)=O` [Ac-LLN] (Ac-Leu-Leu-[Nle]-aldehyde): in test [1] (50 μM), the “effect on degradation of 2XUb-Bla in vitro” value is “stabilized the 2XUb-Bla fusion protein”. Moreover, the concentration for half-maximal inhibition (IC50) (in general, the midpoint of a concentration-inhibition curve) in test [2] is 13 µM.
As to `O=C(O)[C@H]1/C(=C/CO)O[C@@H]2CC(=O)N21` [Clavulanate, clavulanate], the “effect on β-lactamase levels” value in test [3] was “reduces β-lactamase levels to background”.
On to `CC(C)C[C@@H](C=O)NC(=O)[C@H](CC(C)C)NC(=O)[C@H](CC(C)C)NC(=O)OCc1ccccc1` [MG132] (Cbz-Leu-Leu-Leu-aldehyde), for which the “effect on amount of fusion protein synthesized” value in test [4] is “dramatic increase in the amount of fusion protein synthesized”.
Take `COC(=O)C[C@H](NC(=O)[C@H](C)NC(=O)[C@@H](NC(=O)OCc1ccccc1)C(C)C)C(=O)CF` [Z-VAD-fmk] (Cbz-Val-Ala-Asp(OMe)-CH2F): the “effect on stabilization of DEVD-Bla reporters” value in test [5] (10 μM coincident with anti-Fas addition) is reported as “blocked the stabilization of DEVD-Bla reporters”. Besides, the concentration for half-maximal inhibition (IC50) in test [5] (Jurkat cells expressing 2XUb-DEVD-Bla, 50 ng/ml anti-Fas IgM, read-out: IC50 inhibition of anti-Fas induced caspase activity) came out at 5 µM.
Take `COC1=C2C[C@@H](C)C[C@H](OC)[C@H](O)[C@@H](C)/C=C(\C)[C@H](OC(N)=O)[C@@H](OC)/C=C\C=C(/C)C(=O)NC(=CC1=O)C2=O` [geldanamycin]: the 460/530 nm ratio in test [6] worked out at 0.239; in test [7], 0.153.
On to `CC(=O)N[C@@H](CSC(=O)[C@]1([C@@H](O)C(C)C)NC(=O)[C@H](C)[C@@H]1O)C(=O)O` [lactacystin], for which the “effect on degradation of 2XUb-Bla in vitro” value in test [1] (10 μM) is on record as “stabilized the 2XUb-Bla fusion protein”.
Consider `C[C@@H]1C[C@H]2O[C@@H]2/C=C\C=C\C(=O)Cc2c(Cl)c(O)cc(O)c2C(=O)O1` [radicicol], for which the 460/530 nm ratio worked out at 0.229 in test [6] and 0.152 in test [7]. For the same compound, in test [8], the “inhibition of β-lactamase activity (control)” value is “did not inhibit β-lactamase activity”.

(Values after patent US7824850B2, “Methods of protein destabilization and uses thereof” (Aurora Biosciences Corporation, priority 2000, dated 2010).)
